One data set has as its system Dipylidium spp. The data set is described as follows: Topical co-formulation efficacy against natural tapeworm infections in cats (post mortem counts). Format: in vivo. The note with it: single topical dose, 30 days after treatment. As to the method: (§1) […] Cats harbouring natural tapeworm infections were used, and randomized to treatment based on pre-trial infections. Animals were killed 30 days after treatment, and post mortem tapeworm counts were conducted.

The test system of the next data set is Taenia spp. The data set is described as above. In kind it is in vivo. The note with it: Trial "B", single topical dose, 30 days after treatment. As to the method: as §1
The conditions of data set [1]: for Concentration (mg per g) / Concentration (mg per ml): selamectin added at 120 mg per ml, 30° C.
Description: (§2) To achieve this a series of solutions of varying IPA/DPGMME ratio were prepared. To help minimize any solubility issues, which could arise due to the presence of selamectin in a formulation, a constant amount of selamectin was added to each solution. After achieving saturated solubility in these solutions and following filtration to remove excess undissolved praziquantel, the level of praziquantel (and selamectin) in solution was determined by HPLC.
(§3) A series of IPA/DPGMME mixtures were prepared in duplicate as outlined in Table 1. To these were added a fixed amount of selamectin to provide a constant concentration of 120 mg per ml, i.e., the maximum selamectin concentration found in Stronghold™. After preparation these solutions were placed at 30° C. and rolled continuously for 48 hours.
(§4) Praziquantel was analysed using an gradient HPLC method modified from that developed for selamectin. […] This same method was also used to check on the selamectin content in these same solutions.
(§5) The solubility of praziquantel and selamectin in the IPA/DPGMME solutions was calculated as both mg per g and mg per ml. The mass of a 1 ml solution taken for analysis was also measured so that an approximate density could be calculated.
A further data set concerns Taenia taeniaeformis. The note with it: cats, experimental immature infections; cited from earlier work.
For data set [2] the following is noted: cats, 3× dosage levels (oral, subcutaneous, intramuscular) during reproduction; cited from earlier work.
A short description of another data set: physchem. The note with it: 30 °C, organic solvent or mixture, thermodynamic from solid, solubility (based on mean values).
Where [3] appears, read: Trial "A", selamectin 8 mg/kg and/or praziquantel 1 mg/kg.
The mark [4] stands for this setting: Trial "B", selamectin 8 mg/kg and/or praziquantel 1 mg/kg.
Setting [5] is: selamectin 8 mg/kg and/or praziquantel 1 mg/kg.
Where [6] appears, read: solution 2A: IPA 75 / DPGMME 25 % V/V.
[7] abbreviates: solutions 1A/1B: IPA 100 / DPGMME 0 % V/V.
Where [8] appears, read: solutions 3A/3B: IPA 50 / DPGMME 50 % V/V.
[9] abbreviates: solutions 4A/4B: IPA 25 / DPGMME 75 % V/V.
Where [10] appears, read: solutions 5A/5B: IPA 0 / DPGMME 100 % V/V.
[11] abbreviates: Trial "B", praziquantel 0.5 mg/kg, alone or with selamectin 8 mg/kg.
Where [12] appears, read: praziquantel 0.5 mg/kg, alone or with selamectin 8 mg/kg.

≈ marks a conversion by molar mass, not a printed value. Where “and” joins values, the source holds several entries; their conditions need not be identical. Equal values may be shown once. Read-outs that look alike come from different tables or passages of the source. A value given as a limit tells only on which side of the number the result lay.

Description for physchem: as §2, §3, §4, §5

For `CO[C@H]1C[C@H](O[C@@H]2/C(C)=C/C[C@@H]3C[C@@H](C[C@]4(CC[C@H](C)[C@@H](C5CCCCC5)O4)O3)OC(=O)[C@@H]3C=C(C)/C(=N/O)[C@H]4OC/C(=C\C=C\[C@@H]2C)[C@]43O)O[C@@H](C)[C@@H]1O` [Selamectin, 5-oximino-22,23-dihydro-25-cyclohexylayermectin B1], the “% Efficacy (Dipylidium)” value in the data set with Dipylidium spp (setting [3]) is given as 40%. Further, the “Mean Dipylidium post mortem count (n = 4 / gp)” value in the data set on Dipylidium spp (setting [3]) came to 7.2. Further, the “Mean Dipylidium post mortem count (n = 5 / gp)” value in the data set with Dipylidium spp (setting [4]) is “No infection”. For the same compound, the “Mean Taenia post mortem count (n = 5 / gp)” value in the data set on Taenia spp (setting [5]) was “No infection”. Besides, the “solubility as the IPA concentration reduces” value in data set [1] (IPA/DPGMME solutions, all ratios) was at least 100 mg/g. In addition, the “Concentration (mg per g)” value in data set [1] (setting [6]) is 118 mg per g; in data set [1] (setting [7]), 123 mg per g; in data set [1] (setting [8]) it was 113 mg per g; in data set [1] (setting [9]), 113 mg per g and 108 mg per g; in data set [1] (setting [10]), 104 mg per g and 103 mg per g. Besides, the “Concentration (mg per ml)” value is 103 mg per ml in data set [1] (setting [6]); 103 mg per ml in data set [1] (setting [7]); 103 mg per ml in data set [1] (setting [8]); 107 mg per ml and 103 mg per ml in data set [1] (setting [9]); 103 mg per ml and 102 mg per ml in data set [1] (setting [10]).

The term solubility denotes how much of the substance goes into solution per volume. Regarding `O=C(C1CCCCC1)N1CC(=O)N2CCc3ccccc3C2C1` (stereo not shown) [Praziquantel, 2-(cyclohexylcarbonyl)-1,2,3,6,7-11b-hexahydro-4H-pyraz-ino[2,1-a]isoquinolin-4-one], the figures for the “% Efficacy (Dipylidium)” value in the data set with Dipylidium spp (setting [3]), in the data set with Dipylidium spp (setting [11]) and in the data set on Dipylidium spp (setting [4]) were 74%, 16% and 89%, respectively. The “Mean Dipylidium post mortem count (n = 4 / gp)” value in the data set on Dipylidium spp (setting [3]) worked out at 3.25. Moreover, the “Mean Dipylidium post mortem count (n = 5 / gp)” value in the data set on Dipylidium spp (setting [11]) was determined as 7.6; with Dipylidium spp (setting [4]), 1. Moreover, the “% Efficacy (Taenia)” value with Taenia spp (setting [12]) was 100%; in the data set on Taenia spp (setting [5]), 72%. In addition, the results for the “Mean Taenia post mortem count (n = 5 / gp)” value with Taenia spp (setting [12]) and in the data set with Taenia spp (setting [5]) were 0 and 1.2, respectively. The “elimination of experimental T. taeniaeformis infections as young as seven (7) days” value in the data set on Taenia taeniaeformis was 100%. In addition, the “effects on fertility, conception, fetal development or pregnancy” value in data set [2] is reported as “lack of effects on fertility, conception, fetal development or pregnancy”. For the same compound, in “physchem”, the solubility at 48 h was determined as 67 mg/mL (≈ 214 mM).

(Values after US20030064941A1, “Avermectin and praziquantel combination therapy” (priority 2001, published 2003).)
